What all share (assay type): biochemical
Experiment [1] concerns the target T1, human DPP4 (Homo sapiens, UniProt P27487).
T1 construct: purchased Proteros Biostructures GmbH, Germany
Description: DPP4 enzyme inhibition assay, AMC release from GP-AMC. An excerpt: (§1) We then continued to investigate the biochemical properties of the photocaged compound 5 versus the photoreleased product resembling inhibitor 1. To this end, we performed biochemical enzyme inhibition assays with DPP8 and DPP9 before and after irradiation of 5. Resulting DPP8/9 inhibition was quantified by following the DPP8‐ or DPP9‐mediated proteolysis of the fluorophore 7‐amino‐4‐methylcoumarin (AMC) from the model substrate Gly‐Pro‐AMC (Figure 1C,D and Table 1 ). To induce photocleavage of 5, reaction mixtures were irradiated for 5 min with the same green LED lamp as before, followed by a pre‐incubation of 45 min with the photoreleased inhibitor prior to substrate addition.
Enzyme activity of human DPP4, DPP8, and DPP9 (Proteros Biostructures GmbH, Germany) was determined by measuring the initial velocity of AMC release from the fluorogenic substrate GP‐AMC (Sigma Aldrich, USA) using a Tecan Spark 10 M multimode microplate reader (Tecan Group Ltd., Switzerland) in activity buffer (20 mM HEPES/KOH pH 7.3, 110 mM potassium acetate, 2 mM magnesium acetate, 0.5 mM EGTA, 0.02% Tween 20, supplemented with 1 mM DTT) and a final volume of 20 μL for maximal 30 min at 30 °C. Prior to the activity measurement, 10 nM of the corresponding enzyme was incubated for 45 min at 30 °C and gentle shaking with the indicated compounds at concentrations ranging from 0 to 100 μM, followed by irradiation with a green LED lamp (λ = 520−530 nm; Eurolite, Germany) for 5 min. The corresponding compounds were dissolved in DMSO and diluted in activity buffer (final DMSO concentration: 1%). To the inhibitor–enzyme mixture, GP‐AMC was then added to a final concentration of 250 μM, and the activity measurement was started. The resulting enzyme activity was calculated from the slope (fluorescence release over time) and plotted against the concentrations of the inhibitor. Apparent IC50 values were calculated using Graph‐Pad Prism v10.4.1 using the equation: [Inhibitor] versus response‐Variable slope (four parameters). […]

Experiment [2] concerns the target T2, human DPP8 (Homo sapiens, UniProt Q6V1X1).
T2 construct: purchased Proteros Biostructures GmbH, Germany
Description: Progress-curve kinetics of covalent DPP8 inhibition (kinact, KI). The note with it: dark. From the text:
(§2) As previously shown by us, 1 inhibits DPP8 and DPP9 via a covalent modification of the active site serine.^[ [31] ^] Therefore, we also measured the time dependence of this covalent modification of the target enzyme by recording progress curves for the inhibition of DPP8 and 9 and using them to calculate the corresponding binding affinity (KI), maximum enzyme inhibition rate (kinact) as well as the efficiency of covalent bond formation (kinact/KI) values for 5 after and without green light irradiation ( Figure S1 and Table S1, Supporting Information).
(§3) To calculate the reaction rate of covalent bond formation between DPP proteins and the inhibitor, kinact, KI, and kinact/KI were determined as previously described.^[ [49] ^, [50] ^] To this end, a dilution series of 5 was irradiated using a green LED lamp (λ = 520−530 nm; Eurolite, Germany) for 5 min and subsequently mixed with 250 µM GP‐AMC. The mixture was then added to 10 nM enzyme, and the resulting activity was measured for a maximum of 60 min at 30 °C. Fluorescence intensities were plotted against time and data were fitted to the following equation: [drawing 1] using Graph‐Pad Prism v10.4.1. The obtained pseudo first‐order rate constant was used to determine kinact and KI by fitting the plot of kobs against inhibitor concentration to the following equation: [drawing 2] . The efficiency of covalent bond formation (kinact/KI) was calculated by the ratio of kinact/KI. All measurements were performed in triplicate, and error bars represent standard errors of the fit.
(§4) Supplementary Figure 1. Kinetic analysis of DPP8 and DPP9 inhibition by compound 5. The pseudo-first order rate constant (kobs) was calculated from an exponential regression of progress curves and plotted against the concentration of compound 5. All measurement were performed in triplicate (n = 3 technical replicates), mean values are shown and error bars indicate the standard error of the mean (SEM). Inhibition assay was performed with DPP8 (A, B) and DPP9 (C, D) under ‘dark’ (A, C) and ‘light’ (B, D) conditions. […]

In experiment [3] the target is T3, DPP9 (Homo sapiens, UniProt Q86TI2). Description: DPP9 enzyme inhibition assay, AMC release from GP-AMC. Also noted: purchased Proteros Biostructures GmbH, Germany. Conditions: for IC50: read-out: Apparent IC50.
T3 sequence (Q86TI2 whole entry): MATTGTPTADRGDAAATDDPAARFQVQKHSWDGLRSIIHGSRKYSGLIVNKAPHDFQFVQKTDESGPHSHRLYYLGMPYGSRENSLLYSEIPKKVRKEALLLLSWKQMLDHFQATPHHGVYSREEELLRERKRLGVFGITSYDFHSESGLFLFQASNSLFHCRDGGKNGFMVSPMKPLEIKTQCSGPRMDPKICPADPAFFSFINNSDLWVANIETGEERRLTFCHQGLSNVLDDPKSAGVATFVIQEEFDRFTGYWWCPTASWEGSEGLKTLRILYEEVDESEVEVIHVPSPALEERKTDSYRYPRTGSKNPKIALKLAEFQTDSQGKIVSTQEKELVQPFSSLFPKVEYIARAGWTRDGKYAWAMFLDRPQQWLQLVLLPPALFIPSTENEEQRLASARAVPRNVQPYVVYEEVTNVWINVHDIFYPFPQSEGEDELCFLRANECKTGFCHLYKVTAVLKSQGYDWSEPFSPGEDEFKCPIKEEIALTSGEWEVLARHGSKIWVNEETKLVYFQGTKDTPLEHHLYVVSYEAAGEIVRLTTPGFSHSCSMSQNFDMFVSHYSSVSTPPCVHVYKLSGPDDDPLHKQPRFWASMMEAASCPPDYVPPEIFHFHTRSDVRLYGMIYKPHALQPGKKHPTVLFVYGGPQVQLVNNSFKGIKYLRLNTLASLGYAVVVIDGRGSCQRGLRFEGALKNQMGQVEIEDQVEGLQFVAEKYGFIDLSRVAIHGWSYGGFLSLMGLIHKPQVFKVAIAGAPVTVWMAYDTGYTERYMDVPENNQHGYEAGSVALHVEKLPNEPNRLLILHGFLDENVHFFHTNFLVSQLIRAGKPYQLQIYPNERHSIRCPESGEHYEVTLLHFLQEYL
Excerpt: as §1
Enzyme activity of human DPP4, DPP8, and DPP9 (Proteros Biostructures GmbH, Germany) was determined by measuring the initial velocity of AMC release from the fluorogenic substrate GP‐AMC (Sigma Aldrich, USA) using a Tecan Spark 10 M multimode microplate reader (Tecan Group Ltd., Switzerland) in activity buffer (20 mM HEPES/KOH pH 7.3, 110 mM potassium acetate, 2 mM magnesium acetate, 0.5 mM EGTA, 0.02% Tween 20, supplemented with 1 mM DTT) and a final volume of 20 μL for maximal 30 min at 30 °C. Prior to the activity measurement, 10 nM of the corresponding enzyme was incubated for 45 min at 30 °C and gentle shaking with the indicated compounds at concentrations ranging from 0 to 100 μM, followed by irradiation with a green LED lamp (λ = 520−530 nm; Eurolite, Germany) for 5 min. The corresponding compounds were dissolved in DMSO and diluted in activity buffer (final DMSO concentration: 1%). To the inhibitor–enzyme mixture, GP‐AMC was then added to a final concentration of 250 μM, and the activity measurement was started. The resulting enzyme activity was calculated from the slope (fluorescence release over time) and plotted against the concentrations of the inhibitor. Apparent IC50 values were calculated using Graph‐Pad Prism v10.4.1 using the equation: [Inhibitor] versus response‐Variable slope (four parameters). All measurements were performed in triplicate, and error bars represent standard errors of the fit.

In experiment [4] the target is T3, DPP9. Description: Progress-curve kinetics of covalent DPP9 inhibition (kinact, KI). Details: purchased Proteros Biostructures GmbH, Germany. Conditions: dark.
Excerpt: as §2, §3, §4

Like-named read-outs stand apart in the source and are kept apart here.

The results in this text go back to PMC12498190, “A Photocaged N‐Phosphonopiperidinone as a Selective Photo‐Cleavable DPP8/9 Inhibitor” (Chembiochem, 2025).

T1 sequence (P27487 whole entry): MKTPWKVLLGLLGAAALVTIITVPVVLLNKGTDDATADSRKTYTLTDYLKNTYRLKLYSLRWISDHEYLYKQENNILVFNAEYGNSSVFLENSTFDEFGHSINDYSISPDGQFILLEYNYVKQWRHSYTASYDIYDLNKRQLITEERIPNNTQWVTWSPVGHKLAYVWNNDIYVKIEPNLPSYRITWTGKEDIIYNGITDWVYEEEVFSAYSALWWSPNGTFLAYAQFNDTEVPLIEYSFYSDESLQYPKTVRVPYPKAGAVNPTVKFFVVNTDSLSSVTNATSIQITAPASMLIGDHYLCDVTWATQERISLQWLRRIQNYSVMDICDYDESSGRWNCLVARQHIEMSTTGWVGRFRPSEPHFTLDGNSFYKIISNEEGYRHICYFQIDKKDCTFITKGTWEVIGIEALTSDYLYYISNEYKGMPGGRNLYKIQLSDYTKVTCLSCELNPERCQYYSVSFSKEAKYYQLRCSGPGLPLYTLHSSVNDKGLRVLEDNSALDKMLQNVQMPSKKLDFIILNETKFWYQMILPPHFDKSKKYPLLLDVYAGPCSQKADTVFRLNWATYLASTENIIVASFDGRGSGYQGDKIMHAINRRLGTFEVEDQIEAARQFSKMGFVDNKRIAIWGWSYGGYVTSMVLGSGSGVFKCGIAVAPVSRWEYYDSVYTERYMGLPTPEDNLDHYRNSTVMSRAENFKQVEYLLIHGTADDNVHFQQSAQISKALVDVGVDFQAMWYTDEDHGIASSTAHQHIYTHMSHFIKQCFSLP
T2 sequence (Q6V1X1 whole entry): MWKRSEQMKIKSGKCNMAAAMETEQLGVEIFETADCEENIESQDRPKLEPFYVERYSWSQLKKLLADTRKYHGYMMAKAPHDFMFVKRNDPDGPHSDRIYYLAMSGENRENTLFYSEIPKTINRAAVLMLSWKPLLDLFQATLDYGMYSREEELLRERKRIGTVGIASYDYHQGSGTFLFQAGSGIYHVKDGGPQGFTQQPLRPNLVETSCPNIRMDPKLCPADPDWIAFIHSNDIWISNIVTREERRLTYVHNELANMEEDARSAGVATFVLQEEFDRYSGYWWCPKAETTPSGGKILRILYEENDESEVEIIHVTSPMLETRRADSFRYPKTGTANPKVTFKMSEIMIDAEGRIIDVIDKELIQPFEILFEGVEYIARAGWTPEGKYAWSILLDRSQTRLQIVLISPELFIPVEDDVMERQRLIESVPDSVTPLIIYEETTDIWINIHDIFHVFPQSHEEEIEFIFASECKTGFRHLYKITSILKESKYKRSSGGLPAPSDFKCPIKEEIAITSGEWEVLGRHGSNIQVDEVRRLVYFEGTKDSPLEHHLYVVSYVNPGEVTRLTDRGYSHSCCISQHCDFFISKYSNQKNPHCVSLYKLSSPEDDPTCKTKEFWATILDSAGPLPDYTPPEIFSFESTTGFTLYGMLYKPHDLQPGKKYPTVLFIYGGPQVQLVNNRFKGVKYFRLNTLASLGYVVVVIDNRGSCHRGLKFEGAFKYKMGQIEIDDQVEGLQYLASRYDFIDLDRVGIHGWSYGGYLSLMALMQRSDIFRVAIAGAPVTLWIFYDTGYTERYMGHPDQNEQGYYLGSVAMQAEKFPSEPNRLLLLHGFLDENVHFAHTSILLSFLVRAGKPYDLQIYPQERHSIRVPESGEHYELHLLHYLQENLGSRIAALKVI

Broadly, the IC50 is the midpoint of a concentration-inhibition curve. As usually defined, the kinact is the rate constant of inactivation at saturating inhibitor. Broadly, the kinact/KI is the second-order rate constant of inactivation. As to `CCCCCc1ccc(SCCP(=O)(OCC)N2CCC[C@H](NC(=O)OCC3=C4C(C)=CC(C)=[N+]4[B-](C)(C)n4c(C)cc(C)c43)C2=O)cc1` (some centres unmarked) [Compound 5], the IC50 in experiment [1] (DPP4, dark (without green light irradiation), 45 min pre-incubation, read-out: Apparent IC50) is above 100 µM; in experiment [3] (dark (without green light irradiation), 45 min pre-incubation), 24.7 µM; in experiment [3] (light (5 min green LED, 520-530 nm), 45 min pre-incubation) it was 0.621 ± 0.054 µM; in experiment [3] (without irradiation) it was 24.7 ± 6.8 µM. Also, the “DPP4 inhibition (in words)” value in experiment [1] (irradiated) and in experiment [1] (non-irradiated) was “not inhibited” each time. The values for the KI (inactivation) in experiment [2] and in experiment [4] were 8.94 µM and 32.2 µM, respectively. The kinact in experiment [2] is 0.002 s⁻¹; in experiment [4], 0.000464 s⁻¹. Further, the kinact/KI in experiment [2] is 223 M⁻¹ s⁻¹; in experiment [4], 14 M⁻¹ s⁻¹. Further, the “Dark/light ratio of apparent IC50” value in experiment [3] stood at 40. Besides, the “Increase in potency after green light-mediated photorelease” value in experiment [3] (apparent IC50 dark vs light) was around 40 fold.
